Assay results from PubChem BioAssay AID330 (DTP/NCI, 2004).
Several values for one entry are separate records, joined by “and”; a condition that tells them apart may be missing. Equal values may be shown once. Inconclusive results and toxic doses are left out.

System: P388 leukemia ip, CD2F1 mice, survival T/C
Assay: NCI In Vivo Anticancer Drug Screen. Data for tumor model P388 Leukemia (intraperitoneal) in CD2F1 (CDF1) mice
Details: endpoint: median survival time, higher = longer survival
Procedure, shortened: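 Mice carrying the transplanted tumor received test compound or vehicle. Survival was recorded in each group, and the value is the treated-group measurement divided by that of the vehicle-treated control group.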

[1] = dose: 100.0 mg/kg/injection, schedule: Q01DX009 (ip), vehicle: saline
[2] = dose: 200.0 mg/kg/injection, schedule: Q01DX009 (ip), vehicle: saline
[3] = dose: 25.0 mg/kg/injection, schedule: Q04DX002 (ip), vehicle: saline with Tween-80
[4] = dose: 50.0 mg/kg/injection, schedule: Q04DX002 (ip), vehicle: saline with Tween-80

Q: CC(=O)c1cnn(C(N)=O)c1C was tested. Which T/C (dose: 15.0 mg/kg/injection, schedule: Q01DX005 (ip), vehicle: Klucel (hydroxypropylcellulose) (HPC)) did it give?
A: Its T/C is 95 % of control and 96 % of control.

Q: And the T/C (dose: 30.0 mg/kg/injection, schedule: Q01DX005 (ip), vehicle: Klucel (hydroxypropylcellulose) (HPC))?
A: The T/C was 100 % of control and 102 % of control.

Q: What about the T/C (dose: 60.0 mg/kg/injection, schedule: Q01DX005 (ip), vehicle: Klucel (hydroxypropylcellulose) (HPC)) of the same molecule?
A: Its T/C is 101 % of control and 97 % of control.

Q: What about the T/C (dose: 120.0 mg/kg/injection, schedule: Q01DX005 (ip), vehicle: Klucel (hydroxypropylcellulose) (HPC)) of the same molecule?
A: The T/C was 105 % of control and 96 % of control and 98 % of control.

Q: And the T/C (dose: 240.0 mg/kg/injection, schedule: Q01DX005 (ip), vehicle: Klucel (hydroxypropylcellulose) (HPC))?
A: Its T/C is 107 % of control.

Q: How did the T/C (dose: 50.0 mg/kg/injection, schedule: Q01DX005 (ip), vehicle: Klucel (hydroxypropylcellulose) (HPC)) turn out when CC(=O)C1CCC2C3CC4OCC5(CCC(O)CC45Br)C3CCC12C (stereo not given) was run?
A: Its T/C is 104 % of control.

Q: What about the T/C (dose: 100.0 mg/kg/injection, schedule: Q01DX005 (ip), vehicle: Klucel (hydroxypropylcellulose) (HPC)) of the same molecule?
A: Its T/C is 98 % of control.

Q: And the T/C (dose: 200.0 mg/kg/injection, schedule: Q01DX005 (ip), vehicle: Klucel (hydroxypropylcellulose) (HPC))?
A: Its T/C is 101 % of control.

Q: How did the T/C (dose: 50.0 mg/kg/injection, schedule: Q01DX009 (ip), vehicle: saline) turn out when Cc1cccc(=O)n1C was run?
A: The T/C was 102 % of control.

Q: What about the T/C [1] of the same molecule?
A: The T/C was 102 % of control.

Q: What about the T/C [2] of the same molecule?
A: The T/C was 100 % of control.

Q: What does the source list for COc1cccc2c1C(=O)c1c(O)c3c(c(O)c1C2=O)C[C@@](O)(C(C)=O)C[C@@H]3OC1CC(NCc2ccccc2)C(O)C(C)O1 (stereo not given in full)?
A: T/C (dose: 0.78 mg/kg/injection, schedule: Q01DX009 (ip), vehicle: water): 114 % of control; T/C (dose: 1.56 mg/kg/injection, schedule: Q01DX009 (ip), vehicle: water): 161 % of control and 162 % of control; T/C (dose: 2.35 mg/kg/injection, schedule: Q04DX003 (ip), vehicle: water): 106 % of control; T/C (dose: 3.13 mg/kg/injection, schedule: Q01DX009 (ip), vehicle: water): 166 % of control and 185 % of control; T/C (dose: 6.48 mg/kg/injection, schedule: Q04DX003 (ip), vehicle: water): 166 % of control; T/C (dose: 9.4 mg/kg/injection, schedule: Q04DX003 (ip), vehicle: water): 153 % of control; T/C (dose: 10.8 mg/kg/injection, schedule: Q04DX003 (ip), vehicle: water): 204 % of control; T/C (dose: 12.5 mg/kg/injection, schedule: Q01DX009 (ip), vehicle: water): 94 % of control; T/C (dose: 18.0 mg/kg/injection, schedule: Q04DX003 (ip), vehicle: water): 115 % of control; T/C (dose: 18.8 mg/kg/injection, schedule: Q04DX003 (ip), vehicle: water): 169 % of control; T/C (dose: 37.5 mg/kg/injection, schedule: Q04DX003 (ip), vehicle: water): 116 % of control; T/C (dose: 75.0 mg/kg/injection, schedule: Q04DX003 (ip), vehicle: water): 95 % of control

Q: For CCOC(=O)C1C(C(=O)c2ccccc2)C12C(=O)N(C)c1ccccc12 (stereo not given), which T/C (dose: 12.5 mg/kg/injection, schedule: Q04DX002 (ip), vehicle: saline with Tween-80) is on record?
A: The T/C was 103 % of control.

Q: What about the T/C [3] of the same molecule?
A: The T/C was 107 % of control.

Q: What about the T/C [4] of the same molecule?
A: Its T/C is 103 % of control.

Q: With NS(=O)(=O)c1cccc(NC(=S)Nc2ccccc2)c1 as the molecule, how does the T/C (dose: 6.25 mg/kg/injection, schedule: Q01DX009 (ip), vehicle: saline) read?
A: The T/C was 103 % of control (2×) and 108 % of control.

Q: What about the T/C (dose: 12.5 mg/kg/injection, schedule: Q01DX009 (ip), vehicle: saline) of the same molecule?
A: The T/C was 101 % of control and 106 % of control.

Q: And the T/C (dose: 25.0 mg/kg/injection, schedule: Q01DX009 (ip), vehicle: saline)?
A: The T/C was 99 % of control and 109 % of control and 94 % of control.

Q: And the T/C [1]?
A: Its T/C is 99 % of control and 92 % of control.

Q: And the T/C [2]?
A: The T/C was 100 % of control and 110 % of control.

Q: Which results are given for C=CC(=O)NC(=O)Nc1ccccc1Cl?
A: T/C (dose: 6.25 mg/kg/injection, schedule: Q01DX009 (ip), vehicle: Klucel (hydroxypropylcellulose) (HPC)): 102 % of control; T/C (dose: 12.5 mg/kg/injection, schedule: Q01DX009 (ip), vehicle: Klucel (hydroxypropylcellulose) (HPC)): 106 % of control; T/C (dose: 25.0 mg/kg/injection, schedule: Q01DX009 (ip), vehicle: Klucel (hydroxypropylcellulose) (HPC)): 109 % of control and 118 % of control

Q: COc1ccc(/C(N)=N/OCc2ccc(C#N)cc2)cc1 was tested. Which T/C (dose: 50.0 mg/kg/injection, schedule: Q01DX009 (ip), vehicle: Klucel (hydroxypropylcellulose) (HPC)) did it give?
A: The T/C was 96 % of control.

Q: And the T/C (dose: 100.0 mg/kg/injection, schedule: Q01DX009 (ip), vehicle: Klucel (hydroxypropylcellulose) (HPC))?
A: The T/C was 93 % of control.

Q: And the T/C (dose: 200.0 mg/kg/injection, schedule: Q01DX009 (ip), vehicle: Klucel (hydroxypropylcellulose) (HPC))?
A: Its T/C is 95 % of control.

Q: COc1cc(C(=O)CO)cc(OC)c1OC(C)=O was tested. Which T/C (dose: 100.0 mg/kg/injection, schedule: Q04DX003 (ip), vehicle: saline with Tween-80) did it give?
A: The T/C was 104 % of control and 105 % of control.

Q: What about the T/C (dose: 200.0 mg/kg/injection, schedule: Q04DX003 (ip), vehicle: saline with Tween-80) of the same molecule?
A: The T/C was 116 % of control.

Q: For ClCC1=NC2CCCCC2N1 (stereo not given), which T/C (dose: 50.0 mg/kg/injection, schedule: Q01DX005 (ip), vehicle: saline with Tween-80) is on record?
A: The T/C was 102 % of control.

Q: And the T/C (dose: 100.0 mg/kg/injection, schedule: Q01DX005 (ip), vehicle: saline with Tween-80)?
A: The T/C was 98 % of control.

Q: With CC(=C\c1ccc(Cl)c(Cl)c1)/C(C)=N/NC(N)=Nc1ccc(C)cc1 as the molecule, how does the T/C [3] read?
A: Its T/C is 103 % of control.

Q: What about the T/C [4] of the same molecule?
A: Its T/C is 111 % of control.

Q: For CC(=O)NS(=O)(=O)c1ccc(N=NC2=C(O)C(c3ccccc3)N(c3ccccc3)C2=O)cc1 (stereo not given), which T/C (dose: 60.0 mg/kg/injection, schedule: Q01DX005 (ip), vehicle: saline with Tween-80) is on record?
A: Its T/C is 96 % of control.

Q: And the T/C (dose: 120.0 mg/kg/injection, schedule: Q01DX005 (ip), vehicle: saline with Tween-80)?
A: The T/C was 91 % of control.
